Test: Gelling of water-immiscible cosmetic liquids in 96 well glass micro-titre plate
Type: physicochemical
Parameters: key: gel; g4: gel after overnight (18 hrs) storage at 4° C.; g22: gel after overnight (18 hrs) storage at 22° C.; sg: soft gel; sg22: soft gel after overnight (18 hrs) storage at 22° C.; solution; *: the test at 4° C. was not carried out
Details: for gelling of ISA: 150° C. 2.5 hours, cooled to ambient
Procedure: In this Example, various samples of esterified cellobiose prepared as in Example 1 or 2 above, were used to gel water-immiscible cosmetic liquids, in accordance with the procedure given below, in which a large number of gels can be prepared simultaneously.
The samples were tested in a 96 well (8×12 rows) glass micro-titre plate. […] About 0.01 or 0.02 g of each esterified cellobiose material was placed into 8 consecutive wells in a single row, so that each well contained approximately 5% or 10% of the cellobiose ester. The balance in each well comprised the cosmetic liquid by addition of approximately 0.2 g of the respective liquid to each cell. A glass lid was placed on top of the plate. The plate was carefully placed in a thermostatically controlled fan-assisted oven set at 150° C. for 2.5 hours. The plate was removed from the oven and allowed to cool naturally to ambient laboratory temperature. The contents of the wells were assessed at the end of the cooling period, by visual inspection and by poking the contents of each well with a micro-spatula. The plates were stored at […] for 18 hours and the contents inspected, and further stored for 18 hours at 4° C. and inspected for a third time. The results obtained in the tests are summarised in Table 5 below, in which the legend is as follows: […]

[1] = 5% cellobiose ester in Fluid AP
[2] = 5% cellobiose ester in Mineral oil
[3] = 5% cellobiose ester in Polydecene
[4] = 10% cellobiose ester in Fluid AP
[5] = 10% cellobiose ester in Mineral oil
[6] = 10% cellobiose ester in Polydecene

Row | SMILES | gelling of DC556 (5% cellobiose ester in DC556) | gelling of Fluid AP [1] | gelling of IPM (5% cellobiose ester in IPM) | gelling of ISA (5% cellobiose ester in ISA) | gelling of Mineral oil [2] | gelling of Polydecene [3] | gelling of DC556 (10% cellobiose ester in DC556) | gelling of Fluid AP [4] | gelling of IPM (10% cellobiose ester in IPM) | gelling of ISA (10% cellobiose ester in ISA) | gelling of Mineral oil [5] | gelling of Polydecene [6]
1 | CCCCCCCCC(=O)OCC1OC(OC2C(COC(=O)CCCCCCCC)OC(OC(=O)C3CCCCC3)C(OC(=O)CCCCCCCC)C2OC(=O)CCCCCCCC)C(OC(=O)CCCCCCCC)C(OC(=O)CCCCCCCC)C1OC(=O)CCCCCCCC (mixture of isomers) [Ex 1.11] | g22 | gel | sol | g22 | g22 | gel | gel | gel | sol | g22 | g22 | gel
2 | CCCCCCCCC(=O)OCC1OC(OC2C(COC(=O)CCCCCCCC)OC(OC(=O)c3ccc(-c4ccccc4)cc3)C(OC(=O)CCCCCCCC)C2OC(=O)CCCCCCCC)C(OC(=O)CCCCCCCC)C(OC(=O)CCCCCCCC)C1OC(=O)CCCCCCCC (mixture of isomers) [Ex 1.15] | gel | gel | – | gel | gel | gel | gel | gel | – | gel | gel | gel
3 | CCCCCCCCC(=O)OCC1OC(OC2C(COC(=O)CCCCCCCC)OC(OC(=O)CC)C(OC(=O)CCCCCCCC)C2OC(=O)CCCCCCCC)C(OC(=O)CCCCCCCC)C(OC(=O)CCCCCCCC)C1OC(=O)CCCCCCCC (mixture of isomers) [Ex 1.16] | gel | gel | – | gel | gel | gel | gel | gel | – | gel | gel | gel
4 | CCCCCCCCC(=O)OCC1OC(OC2C(COC(=O)CCCCCCCC)OC(OC(=O)CCC)C(OC(=O)CCCCCCCC)C2OC(=O)CCCCCCCC)C(OC(=O)CCCCCCCC)C(OC(=O)CCCCCCCC)C1OC(=O)CCCCCCCC (mixture of isomers) [Ex 1.18] | gel | gel | – | sg22 | g22 | gel | gel | gel | – | gel | gel | gel
5 | CCCCCCCCC(=O)OCC1OC(OC2C(COC(=O)CCCCCCCC)OC(OC(=O)CCCC)C(OC(=O)CCCCCCCC)C2OC(=O)CCCCCCCC)C(OC(=O)CCCCCCCC)C(OC(=O)CCCCCCCC)C1OC(=O)CCCCCCCC (mixture of isomers) [Ex 1.20] | g22 | g22 | – | sg22 | g22 | gel | g22 | gel | – | g22 | g22 | gel
6 | CCCCCCCCC(=O)OCC1OC(OC2C(COC(=O)CCCCCCCC)OC(OC(=O)CCCCC)C(OC(=O)CCCCCCCC)C2OC(=O)CCCCCCCC)C(OC(=O)CCCCCCCC)C(OC(=O)CCCCCCCC)C1OC(=O)CCCCCCCC (mixture of isomers) [Ex 1.21] | g22 | gel | – | sg22 | g22 | gel | gel | gel | – | g22 | g22 | gel
7 | CCCCCCCCC(=O)OCC1OC(OC2C(COC(=O)CCCCCCCC)OC(OC(=O)CCCCCC)C(OC(=O)CCCCCCCC)C2OC(=O)CCCCCCCC)C(OC(=O)CCCCCCCC)C(OC(=O)CCCCCCCC)C1OC(=O)CCCCCCCC (mixture of isomers) [Ex 1.22] | g22 | gel | – | sg22 | sol | gel | g22 | gel | – | g22 | g22 | gel
8 | CCCCCCCCCCCC(=O)OC1OC(COC(=O)CCCCCCCC)C(OC2OC(COC(=O)CCCCCCCC)C(OC(=O)CCCCCCCC)C(OC(=O)CCCCCCCC)C2OC(=O)CCCCCCCC)C(OC(=O)CCCCCCCC)C1OC(=O)CCCCCCCC (mixture of isomers) [Ex 1.23] | gel | sg | – | g22 | g22 | gel | gel | gel | – | g22 | g22 | gel
9 | CCCCCCCCCCCCCC(=O)OC1OC(COC(=O)CCCCCCCC)C(OC2OC(COC(=O)CCCCCCCC)C(OC(=O)CCCCCCCC)C(OC(=O)CCCCCCCC)C2OC(=O)CCCCCCCC)C(OC(=O)CCCCCCCC)C1OC(=O)CCCCCCCC (mixture of isomers) [Ex 1.24] | gel | gel | – | g22 | g22 | gel | gel | gel | – | gel | g22 | gel
10 | CCCCCCCCCC(=O)OCC1OC(OC2C(COC(=O)CCCCCCCCC)OC(OC(=O)c3ccccc3)C(OC(=O)CCCCCCCCC)C2OC(=O)CCCCCCCCC)C(OC(=O)CCCCCCCCC)C(OC(=O)CCCCCCCCC)C1OC(=O)CCCCCCCCC (mixture of isomers) [Ex 2.2] | gel | gel | – | gel | gel | gel | gel | gel | – | gel | gel | gel
11 | CCCCCCCCCC(=O)OCC1OC(OC2C(COC(=O)CCCCCCCCC)OC(OC(C)=O)C(OC(=O)CCCCCCCCC)C2OC(=O)CCCCCCCCC)C(OC(=O)CCCCCCCCC)C(OC(=O)CCCCCCCCC)C1OC(=O)CCCCCCCCC (mixture of isomers) [Ex 2.3] | gel | gel | – | gel | gel | gel | gel | gel | – | gel | gel | gel
12 | CCCCCCCCCC(=O)OCC1OC(OC2C(COC(=O)CCCCCCCCC)OC(OC(C)=O)C(OC(=O)CCCCCCCCC)C2OC(=O)CCCCCCCCC)C(OC(=O)CCCCCCCCC)C(OC(=O)CCCCCCCCC)C1OC(=O)CCCCCCCCC (mixture of isomers) [Ex 2.4] | gel | gel | – | gel | gel | gel | – | – | – | – | – | –

Source: patent publication US6974804B2, “Esters” (Unilever Home & Personal Care USA, division of Conopco, Inc., priority 2000, dated 2005)
